Experimental data published in US9139811B2, “Composition for suspension culturing of stem cells” (SEOUL NATIONAL UNIVERSITY HOSPITAL, priority 2011, dated 2015).

Experiments:
[1] = tested on: HGF (hepatocyte growth factor); assay: HGF ELISA of culture supernatant; format: cell-based, human; details: vs untreated control cells and EDTA-treated control cells, FIG. 5
Text: (§1) In vivo conditions in which treatment of cells is required are mostly ischemic anoxic anaerobic conditions in which the cells are injured or broken, and one of major factors in the conditions is HGF (hepatocyte growth factor). Thus, in order to examine the expression level of the hepatocyte growth factor HGF, the supernatant was collected from the cell sample and analyzed by ELISA (enzyme-linked immunosorbent assay) using a HGF-specific antibody according to the manufacturer's protocol.

[2] = tested on: HGF (hepatocyte growth factor); assay: Suspension culture of single cells using E-cadherin blocker: HGF expression; format: cell-based, human; details: aggregation inhibited with E-cadherin blocking antibody, Y-27632 for 24 hours, FIG. 9
Text: as §1
In order to use E-cadherin to induce single-cell culture during suspension culture, the cells were treated with an E-cadherin blocker to inhibit the induction of cell aggregation during suspension culture. Specifically, human mesenchymal stem cells were cultured in 10% FBS-containing α-MEM medium such that no contact inhibition occurred. When a confluence of about 80% was reached, the medium was removed by suction for cell counting, and the cells were washed with PBS (calcium-free and magnesium-free). Then, the cells were treated with 0.25% trypsin/EDTA and allowed to stand in a CO2 incubator at 37° C. for 30 seconds. The cells that dropped into the tube were collected, and the cells remaining in the dish were completely collected with 10% FBS-containing α-MEM, and the collected cells were centrifuged at 1500 rpm for 5 minutes. […]

[3] = tested on: ERK (extracellular signal-regulated kinase); assay: Western blotting of ERK phosphorylation in suspension-cultured cells; format: cell-based, human; details: suspension culture for 6 hours, Y27632-treated vs control (naive) cells, FIG. 4
Method: (§2) In order to measure a change in the expression of an anti-apoptosis factor in a cell sample, the expression level of BCL-XL was measured at the protein level. In addition, the cells were collected after suspension culture for 6 hours, and the degree of phosphorylation of ERK which is involved in the activity of the cells was evaluated. Specifically, the cells were lysed with a reducing agent [Lysis PreMix (4° C. stock)+NaF ([…], ×100)+orthovanadate (200 mM, ×200)+proteinase inhibitor cocktail (1 tablet/10 ml)], and then electrophoresed on SDS-polyacrylamide gel. Then, the cells were transferred to a PVDF transfer membrane (Millipore), after which a change in the expression of the protein was examined by a primary antigen-antibody reaction using BCL-xl (Santa Cruz Biotechnology) and a secondary antigen-antibody reaction using anti-rabbit IgG and anti-mouse IgG.

[4] = tested on: Human mesenchymal stem cells; assay: Suspension culture of human mesenchymal stem cells under anoxic anaerobic condition and cell counting; format: cell-based; details: for number of dead cells / number of viable cells / total number of cells / viability: anaerobic condition, 20 μM Y27632
Method: Human mesenchymal stem cells were cultured in 10% FBS-containing α-MEM medium such that no contact inhibition occurred. […] Then, the cells were treated with 0.25% trypsin/EDTA and allowed to stand in a CO2 incubator at 37° C. for 30 seconds. The cells that dropped into the tube were collected, and the cells remaining in the dish were completely collected with 10% FBS-containing α-MEM, and the collected cells were centrifuged at 2000 rpm for 5 minutes. The supernatant medium was removed by suction, and the precipitated cells were suspended in 5 ml of EB medium (80% DMEM/F12 80%+20% serum replacement) and then centrifuged at 1500 rpm for 5 minutes. Then, the cells were suspended in 10 ml of medium (containing or not containing 20 μM Y27632) in a 100 0 Petri dish at a density of 2.0×10^6 cells. Then, the cells were placed in an anoxic pack (BD Science) to induce an anoxic anaerobic condition. […]

[5] = tested on: Human mesenchymal stem cells (BM-MSC); assay: Suspension culture of human mesenchymal stem cells, trypan blue staining and cell counting; format: cell-based; details: for cell aggregation / apoptosis of non-aggregated single cells: 24 hours of culture, FIG. 2; for apoptosis of non-aggregated single cells: trypan blue staining
Method: Human mesenchymal stem cells (Lonza, Switzerland) were cultured in 10% FBS-containing α-MEM medium such that no contact inhibition occurred. […] Then, the cells were treated with 0.25% trypsin/EDTA and allowed to stand in a CO2 incubator at 37° C. for 30 seconds. The cells that dropped into the tube were collected, and the cells remaining in the dish were completely collected with 10% FBS-containing α-MEM, and the collected cells were centrifuged at 1500 rpm for 5 minutes. The supernatant medium was removed by suction, and the precipitated cells were suspended in 5 ml of EB medium (80% DMEM/F12 80%+20% serum replacement) and then centrifuged at 1500 rpm for 5 minutes. Then, the cells were suspended in 10 ml of medium (containing or not containing 20 μM Y27632) in a 100 Φ Petri dish at a density of 2.0×10^6 cells. After 24 hours, the aggregated cells were stained with trypan blue, and then counted with an automated cell counter (Invitrogen).

[6] = tested on: BCL-XL; assay: Western blotting of BCL-XL expression in suspension-cultured cells; format: cell-based, human; details: Y27632-treated vs control (naive) cells, FIG. 3
Method: as §2

[7] = 20 μM Y27632, suspension culture 24 hours, trypan blue

Compound | expression level of HGF [1] | HGF efficiency (expression level of HGF) [2] | phosphorylation of ERK [3] | number of dead cells ([4]; 6 hours of culture) | number of viable cells ([4]; 6 hours of culture) | total number of cells ([4]; 6 hours of culture) | viability ([4]; 6 hours of culture) | number of dead cells ([4]; 24 hours of culture) | number of viable cells ([4]; 24 hours of culture) | total number of cells ([4]; 24 hours of culture) | viability ([4]; 24 hours of culture) | apoptosis of single cells ([4]; anoxic anaerobic condition, FIG. 7) | total number of cells ([5]; 20 μM Y27632, suspension culture 24 hours) | number of dead cells [5, 7] | number of viable cells [5, 7] | viability [5, 7] | cell aggregation [5] | apoptosis of non-aggregated single cells [5] | expression of the anti-apoptosis factor BCL-XL [6]
C[C@@H](N)[C@H]1CC[C@H](C(=O)Nc2ccncc2)CC1.Cl.Cl (relative stereo) [Y27632, trans-4-[(1R)-1-Aminoethyl]-N-4-pyridinyl-cyclohexanecarboxamide, 2HCl] | significantly higher | increased | significantly increased | 2.4×10^5 | 1.2×10^6 | 1.6×10^6 | 84% | 1.6×10^5 | 1.24×10^6 | 1.4×10^6 | 90% | did not undergo apoptosis | 1.8×10^6 | 0.54×10^6 | 1.26×10^6 | 70% | further increased | prevented | significantly increased
O=C(O)CN(CCN(CC(=O)O)CC(=O)O)CC(=O)O [EDTA] |  |  |  |  |  |  |  |  |  |  |  |  |  |  |  |  | no cell aggregation occurred | apoptosis occurred in all the cells | 
